Key:
[1] = Hygroscopicity as stated in the description; format: physicochemical; conditions: solid state
[2] = Hygroscopicity of montelukast acid (water content by Karl Fisher apparatus after exposure); format: physicochemical
Description: Montelukast acid (50 mg) from Example 2 was exposed to air overnight. The water content was then determined to be 0.07 wt % using a Karl Fisher apparatus.
Montelukast acid (50 mg) from Example 2 was stored for 2 days at 40° C., 75% relative humidity. The water content was then determined to be 0.27 wt % using a Karl Fisher apparatus.

hygroscopicity in comparison to sodium montelukast [1]: reduced hygroscopicity | water content ([2]; montelukast acid (50 mg) from Example 2, exposed to air overnight): 0.07 wt % | water content ([2]; montelukast acid (50 mg) from Example 2, stored for 2 days at 40° C., 75% relative humidity): 0.27 wt %
Compound: CC(C)(O)c1ccccc1CC[C@@H](SCC1(CC(=O)O)CC1)c1cccc(/C=C/c2ccc3ccc(Cl)cc3n2)c1 [Montelukast acid, [R-(E)]-1-[[[1-[3-[2-(7-chloro-2-quinolinyl)ethenyl]phenyl]-3-[2-(1-hydroxy-1-methylethyl)phenyl]propyl]thio]methyl]cyclopropane acetic acid]

From patent US7553853B2, “Solid-state montelukast” (Synthon BV, priority 2003, dated 2009)
